These results are taken from PMC8196714, “Design, Radiosynthesis and Preliminary Biological Evaluation in Mice of a Brain-Penetrant ^18F-Labelled σ2 Receptor Ligand” (International Journal of Molecular Sciences, 2021).

Series [1] has as its target T1, σ2 receptors expressed in F98 cells (Rattus norvegicus, UniProt Q5U3Y7).
T1 construct: σ2 receptors expressed in F98 cells; endogenous in cells; host or cells: F98 rat glioma cells
T1 sequence (Q5U3Y7 1-176): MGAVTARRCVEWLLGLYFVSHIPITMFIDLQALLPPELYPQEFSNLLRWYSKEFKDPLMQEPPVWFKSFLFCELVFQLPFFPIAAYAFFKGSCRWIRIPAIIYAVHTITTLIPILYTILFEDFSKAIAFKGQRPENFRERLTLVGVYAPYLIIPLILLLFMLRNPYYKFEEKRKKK
Description: Homologous competition with membrane homogenates of F98 cells. The class given is binding. An excerpt: (§1) Initially, we investigated the binding of [^18F]RM273 on rat brain slices by autoradiography to compare the distribution pattern with that of established σ2 receptor ligands and to examine the target specificity. The highest binding was found in the cortical areas and hippocampal structures. […] Accordingly, we proceeded to investigate, in a rat glioblastoma model, the potential suitability of [^18F]RM273 for molecular characterization of cancer. At first, homologous competition studies using membrane homogenates of the rat glioma cell line F98 were performed to determine the σ2 receptor binding parameters of [^18F]RM273 cells (Figure 3).
Binding affinity experiments to assess the Ki values of test compounds towards rat σ2 receptors, human σ1 receptors, and rat VAChT were performed according to protocols previously published by our group. The same protocol was used to determine the KD and Bmax values of RM273 towards σ2 receptors expressed in F98 cells by homologous competition analyzing the displacement of [^18F]RM273 by RM273.
Figure 3 Determination of KD and Bmax values of [^18F]RM273. Homologous competition studies were performed by incubation of [^18F]RM273 at 5–7 different molar activities either with membrane homogenates of F98 cells (open squares) or cryosections of rat brain (n = 2) obtained about three weeks after stereotactic implantation of F98 cells (tumor region = filled circles; contralateral region = open circles). […] For the F98 cell homogenate, the maximum number of binding sites Bmax was calculated by division of the specific binding by the fractional occupancy fp (Bmax = 36,000 fmol/mg protein).

A short description of series [2]: Lipophilicity (logD7.4), shake-flask method. Type of series: physicochemical. The note with it: n-octanol/PBS pH 7.4, shake-flask, n = 3. How it is done:
The in vitro stability of [^18F]RM273 was investigated in saline, phosphate-buffered saline (PBS), and TRIS-HCl buffer (50 mM, pH 7.4) at 37 °C for 2 h, and the radioligand remained intact (90%, 94%, and 100%, respectively; saline for 1 h: 95%). The logD7.4 of [^18F]RM273 was experimentally determined by the shake-flask method as 1.78 ± 0.22 (n = 3), which is well within the range of 1–3.5 recommended for brain targeting compounds [43].
LogD7.4 of [^18F]RM273 was experimentally determined in n-octanol/PBS; 0.01 M, pH 7.4) at room temperature by the shake-flask method. The measurement was performed twice in triplicate.

The target of another series is T2, σ2 receptor (Rattus norvegicus, UniProt Q5U3Y7).
T2 sequence (Q5U3Y7 1-176): T1 sequence (Q5U3Y7 1-176)
Description: In vitro autoradiography on rat brain cryosections (healthy and orthotopic F98 glioblastoma). Type of series: binding. The arrangement: from tissue; host or cells: rat brain cryosections (SPRD healthy; Fisher F344 with orthotopic F98 glioblastoma). As to conditions: for specific binding sites: at 1.5 nM [18F]RM273; for Kd: rat brain cryosections, n = 2.
Text: as §1
We subsequently investigated the binding parameters of [^18F]RM273 by in vitro autoradiography using cryosections of rat brains obtained three weeks after stereotactic implantation of F98 rat glioblastoma cells into the left striatum. Initially, we performed a homologous displacement study to directly compare the binding sites of the new radioligand in a healthy brain and a brain tumor. The inhibition curves presented in Figure 3 indicate binding of [^18F]RM273 to single binding sites in both brain regions. […] Further supporting the assumption of a tumor-specific overexpression of σ2 receptors, a remarkably high density of binding sites of [^18F]RM273 in the F98 tumor tissue was observed (Figure 4). Compared to the healthy tissue (contralateral side), about three times more specific binding sites of [^18F]RM273 were estimated for the tumor region (32 × 10^−9 mol/L vs. 94 × 10^−9 mol/L at 1.5 nM [^18F]RM273).
In vitro autoradiography was performed using cryosections of brains of a healthy rat (SPRD, female, 250 g; Medizinisch-Experimentelles Zentrum, Universität Leipzig, Leipzig, Germany) and brains obtained from rats (Fisher F344/HanZtmRj, male, ≈260 g; Janvier Labs, Le Genest-Saint-Isle, France) 23 days after stereotactic implantation of 5 × 10^4 F98 cells in the […] striatum (n = 2).
Immediately after isolation, the brains were frozen by immersion in isopentane at −25 °C. Cryosections of 12 μm (Microm HM560 cryostat, Thermo Scientific, Schwerte, Germany) were mounted on microscopic glass slides, dried at room temperature, and stored at −25 °C. For the experiment, the slices were dried at room temperature under a stream of cold air before pre-incubation in PBS, pH 7.4, at room temperature for 15 min. […] Co-incubation with serial dilutions of RM273 (10^−10–10^−6 M) was performed to determine an inhibition curve. After 60 min, the incubation at room temperature was terminated by decanting and washing the slides by two consecutive incubations in ice-cold washing buffer (50 mM TRIS-HCl, pH 7.4 at 4 °C) for two min each, followed by dipping in ice-cold demineralized water for 5 sec and drying under a stream of cold air. In parallel, for subsequent quantification of the data obtained from the homologous competition experiment, defined volumes, and thus defined activities of the radioligand solution, were pipetted onto a microscopic glass slide (0.5–3 μL = 0.0355–0.213 kBq) and dried. Afterwards the tissue samples along with the standards were exposed to an ^18F-sensitive phosphor screen (ABC) for two hours. Image acquisition was performed using a phosphorimager (HD-CR 35; DÜRR NDT GmbH & Co. KG, Bietigheim-Bissingen, Germany). Analysis of the digitized images was performed by image analysis software (AIDA; Elysia-raytest GmbH, Straubenhardt, Germany).
Irregular regions of interest (ROI) were drawn on the standard spots and the different brain regions, which were confirmed by Nissl staining of the identical brain sections. Optical density measured in each ROI was expressed as quantum levels per unit area (QL/pixel) with a pixel size of 12.5 μm^2. From the calibration curve obtained from the standards by plotting QL vs. activity, the QL values of the ROIs were converted to activity values followed by conversion to chemical concentration of RM273 based on the molar activity of [^18F]RM273. […]

On to `COc1cc2c(cc1OC)CN(CCCCn1ccc3ccc([18F])nc31)CC2` [[^18F]RM273], for which the Bmax equivalent result in series [1] (F98 cell homogenate, converted from fmol/mg protein) was “about 3600 fmol/mg tissue”. The Bmax in series [1] (F98 cell membrane homogenate) is 36,000 fmol/mg protein. The Kd in series [1] (F98 cell membrane homogenate, homologous competition) was 12 nM; at σ2 receptor (contralateral striatum / contralateral brain), 2.93 nM; at σ2 receptor (orthotopically grown F98 tumor region) it was 4.82 nM. This compound yielded a logD in series [2] of 1.78 ± 0.22. Moreover, the specific binding sites is 9.4e-08 mol/L at σ2 receptor (F98 tumor region) and 3.2e-08 mol/L at σ2 receptor (healthy tissue (contralateral side)).

For orientation: Kd means a measure of binding affinity in units of concentration. For orientation: logD means lipophilicity at a set pH, counting ionised and neutral species.
